Results from ChEMBL document CHEMBL4038276 (Bioorg Med Chem, 2017).
Activity calls are given as the source filed them. The rule behind the calls is not given here.

Assays:
[1] = biological target: Mu-type opioid receptor (Rattus norvegicus) (UniProt P33535); conditions: at 100 nM
Mu-type opioid receptor [2] = biological target: T1, Mu-type opioid receptor (Rattus norvegicus, UniProt P33535)
[3] = biological target: Kappa-type opioid receptor (Rattus norvegicus) (UniProt P34975); experiment: Displacement of [3H]U-69,593 from kappa opioid receptor in rat brain at 100 nM after 60 mins by liquid scintillation counting method relative to control
[4] = biological target: Mu-type opioid receptor (Rattus norvegicus) (UniProt P33535); experiment: Antagonist activity at rat mu opioid receptor expressed in rat C6 cell membranes assessed as inhibition of DAMGO-induced [35S]GTPgammaS binding measured after 1 hr by liquid scintillation counting method; format: functional
[5] = biological target: Delta-type opioid receptor (Rattus norvegicus) (UniProt P33533); experiment: Displacement of [3H]DADLE from delta opioid receptor in rat brain at 100 nM after 60 mins by liquid scintillation counting method relative to control
Mu-type opioid receptor [6] = biological target: T1, Mu-type opioid receptor; experiment: Agonist activity at rat mu opioid receptor expressed in rat C6 cell membranes assessed as stimulation of [35S]GTPgammaS binding incubated for 1 hr by liquid scintillation counting method; format: functional
[7] = biological target: Mu-type opioid receptor (Rattus norvegicus) (UniProt P33535); experiment: Agonist activity at rat mu opioid receptor expressed in rat C6 cell membranes assessed as stimulation of [35S]GTPgammaS binding incubated for 1 hr by liquid scintillation counting method relative to DAMGO; format: functional
[8] = biological target: T2, Kappa-type opioid receptor (Homo sapiens, UniProt P41145); experiment: Agonist activity at human kappa opioid receptor expressed in CHO cell membranes assessed as stimulation of [35S]GTPgammaS binding incubated for 1 hr by liquid scintillation counting method; format: functional
[9] = biological target: Delta-type opioid receptor (Rattus norvegicus) (UniProt P33533); experiment: Agonist activity at rat delta opioid receptor expressed in rat C6 cell membranes assessed as stimulation of [35S]GTPgammaS binding incubated for 1 hr by liquid scintillation counting method relative to DPDPE; format: functional
[10] = biological target: Kappa-type opioid receptor (Rattus norvegicus, UniProt P34975); experiment: Displacement of [3H]U-69,593 from kappa opioid receptor in rat brain after 60 mins by liquid scintillation counting method
Rattus norvegicus = species on record: Rattus norvegicus; experiment: Selectivity ratio of EC50 for rat delta opioid receptor to EC50 for rat mu opioid receptor
[11] = biological target: T3, Delta-type opioid receptor (Rattus norvegicus, UniProt P33533); experiment: Displacement of [3H]DADLE from delta opioid receptor in rat brain after 60 mins by liquid scintillation counting method
[12] = biological target: T2, Kappa-type opioid receptor; experiment: Agonist activity at human kappa opioid receptor expressed in CHO cell membranes assessed as stimulation of [35S]GTPgammaS binding incubated for 1 hr by liquid scintillation counting method relative to U-69,593; format: functional
[13] = biological target: T3, Delta-type opioid receptor; experiment: Agonist activity at rat delta opioid receptor expressed in rat C6 cell membranes assessed as stimulation of [35S]GTPgammaS binding incubated for 1 hr by liquid scintillation counting method; format: functional
[14] = Selectivity ratio of EC50 for human kappa opioid receptor expressed in CHO cell membranes to EC50 for rat mu opioid receptor expressed in rat C6 cell membranes; format: cell-based
[15] = biological target: Mu-type opioid receptor (Rattus norvegicus) (UniProt P33535); experiment: Antagonist activity at rat brain mu opioid receptor expressed in rat C6 cell membranes assessed as inhibition of DAMGO-induced [35S]GTPgammaS binding at 1 uM after 1 hr by liquid scintillation counting method; format: functional
[16] = biological target: T2, Kappa-type opioid receptor; experiment: Antagonist activity at human kappa opioid receptor expressed in CHO cell membranes assessed as inhibition of U-69,593-induced [35S]GTPgammaS binding measured after 1 hr by liquid scintillation counting method; format: functional

Sequence of Delta-type opioid receptor (Rattus norvegicus) (P33533 whole entry): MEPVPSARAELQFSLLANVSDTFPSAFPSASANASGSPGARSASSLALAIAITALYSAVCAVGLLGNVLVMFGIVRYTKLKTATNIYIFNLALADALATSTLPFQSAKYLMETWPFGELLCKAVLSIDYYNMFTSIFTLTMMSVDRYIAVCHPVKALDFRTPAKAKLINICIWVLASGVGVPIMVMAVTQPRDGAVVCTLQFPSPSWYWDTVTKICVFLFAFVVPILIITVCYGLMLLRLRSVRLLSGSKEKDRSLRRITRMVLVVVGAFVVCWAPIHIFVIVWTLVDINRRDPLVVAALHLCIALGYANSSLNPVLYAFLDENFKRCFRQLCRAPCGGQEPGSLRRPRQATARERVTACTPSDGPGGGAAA
T3 sequence (P33533 whole entry): as above
T2 sequence (P41145 whole entry): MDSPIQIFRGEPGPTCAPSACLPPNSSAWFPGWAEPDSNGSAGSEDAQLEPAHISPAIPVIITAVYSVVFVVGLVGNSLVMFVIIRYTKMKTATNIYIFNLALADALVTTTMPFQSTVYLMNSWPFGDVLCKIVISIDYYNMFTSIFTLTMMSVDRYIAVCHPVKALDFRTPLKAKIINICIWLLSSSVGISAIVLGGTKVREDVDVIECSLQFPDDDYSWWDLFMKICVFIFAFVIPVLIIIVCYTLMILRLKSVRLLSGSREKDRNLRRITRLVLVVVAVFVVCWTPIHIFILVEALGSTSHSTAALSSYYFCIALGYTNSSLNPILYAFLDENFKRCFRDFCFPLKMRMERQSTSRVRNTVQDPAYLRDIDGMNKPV
Sequence of Kappa-type opioid receptor (Rattus norvegicus) (P34975 whole entry): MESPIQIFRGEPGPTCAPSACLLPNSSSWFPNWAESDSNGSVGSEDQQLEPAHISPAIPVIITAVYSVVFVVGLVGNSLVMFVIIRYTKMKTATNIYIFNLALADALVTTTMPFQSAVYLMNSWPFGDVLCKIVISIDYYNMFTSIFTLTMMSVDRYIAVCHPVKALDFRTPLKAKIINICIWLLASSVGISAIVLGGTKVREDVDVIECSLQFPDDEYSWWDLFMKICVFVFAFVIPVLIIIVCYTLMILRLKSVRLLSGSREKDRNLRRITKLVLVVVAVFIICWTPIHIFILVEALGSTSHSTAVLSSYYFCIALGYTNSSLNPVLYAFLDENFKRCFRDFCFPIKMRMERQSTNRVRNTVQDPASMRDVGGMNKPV
T1 sequence (P33535 whole entry): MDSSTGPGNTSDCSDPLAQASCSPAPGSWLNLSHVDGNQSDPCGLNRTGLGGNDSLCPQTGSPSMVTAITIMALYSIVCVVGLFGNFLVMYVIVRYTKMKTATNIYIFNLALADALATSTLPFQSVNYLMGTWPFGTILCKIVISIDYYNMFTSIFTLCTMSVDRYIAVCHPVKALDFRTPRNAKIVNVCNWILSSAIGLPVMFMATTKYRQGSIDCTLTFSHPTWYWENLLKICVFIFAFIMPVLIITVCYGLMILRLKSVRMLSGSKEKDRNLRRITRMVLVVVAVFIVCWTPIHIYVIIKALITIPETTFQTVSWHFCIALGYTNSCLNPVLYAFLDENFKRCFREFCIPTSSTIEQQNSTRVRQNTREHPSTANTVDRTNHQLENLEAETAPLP
Sequence of Mu-type opioid receptor (Rattus norvegicus) (P33535 whole entry): as above
Sequence of Kappa-type opioid receptor (Rattus norvegicus, UniProt P34975) (P34975 whole entry): as the sequence (P34975 whole entry) above

Row | Compound | inhibition [1] [%] | Ki (Mu-type opioid receptor [2]) [nM] | inhibition [3] [%] | inhibition [4] | inhibition [5] [%] | EC50 (Mu-type opioid receptor [6]) [nM] | Activity [7] [%] | EC50 [8] [nM] | Activity [9] [%] | Ki [10] [nM] | Ratio EC50 (Rattus norvegicus) | Ki [11] [nM] | Activity [12] [%] | EC50 [13] [nM] | Ratio EC50 [14] | Ke [15] [nM] | inhibition [16]
1 | Oc1cccc([C@@]23CCC[C@@H]([C@@H]2O)N(CC/C=C/c2ccccc2)CC3)c1 | > 50 | 25 | < 50 | Active | < 50 | – | – | – | – | – | – | – | – | – | – | – | –
2 | Oc1cccc([C@]23CCC[C@H]([C@@H]2O)N(C[C@@H]2C[C@@H]2c2ccccc2)CC3)c1 | > 50 | 11.6 | < 50 | – | < 50 | 797 | 22 | – | – | – | – | – | – | – | – | – | –
3 | Oc1cccc([C@]23CCC[C@H]([C@H]2O)N(CCc2ccc(C(F)(F)F)cc2)CC3)c1 | > 50 | 1.99 | > 50 | – | > 50 | 19 | 83 | 761 | 50 | 29.9 | 47 | 161 | 18 | 901 | 40 | – | –
4 | O=[N+]([O-])c1ccc(CCN2CC[C@]3(c4cccc(O)c4)CCC[C@H]2[C@@H]3O)cc1 | > 50 | 26.5 | < 50 | Active | < 50 | – | – | – | – | – | – | – | – | – | – | 31.5 | –
5 | O=[N+]([O-])c1ccc(CCN2CC[C@@]3(c4cccc(O)c4)CCC[C@@H]2[C@H]3O)cc1 | > 50 | 0.073 | > 50 | – | > 50 | 0.74 | 104 | – | 104 | 54.5 | 850 | 9.81 | – | 630 | – | – | Active
6 | Oc1cccc(C23CCCC(C2O)N(C/C=C/c2ccccc2)CC3)c1 (single isomer, unassigned) | > 50 | 0.741 | < 50 | – | > 50 | 1.9 | 20 | – | 51 | – | 133 | 17.8 | – | 253 | – | – | –
7 | CN1CC[C@]23c4c5ccc(O)c4O[C@H]2[C@@H](O)C=C[C@H]3[C@H]1C5 | > 50 | – | – | – | – | – | – | – | – | – | – | – | – | – | – | – | –
8 | Oc1cccc([C@]23CCC[C@H]([C@@H]2O)N(C[C@@H]2C[C@H]2c2ccccc2)CC3)c1 | > 50 | 44.5 | < 50 | Active | < 50 | – | – | – | – | – | – | – | – | – | – | – | –
9 | C=CCN1C[C@H](C)N([C@H](c2ccc(C(=O)N(CC)CC)cc2)c2cccc(OC)c2)C[C@H]1C | – | – | – | – | > 50 | – | – | – | – | – | – | – | – | – | – | – | –
10 | Oc1cccc([C@]23CCC[C@H]([C@@H]2O)N(C[C@H]2C[C@H]2c2ccccc2)CC3)c1 | > 50 | 51.8 | < 50 | Active | < 50 | – | – | – | – | – | – | – | – | – | – | – | –
11 | Oc1cccc([C@]23CCC[C@H]([C@H]2O)N(CCc2ccccc2)CC3)c1 | > 50 | 0.265 | – | – | > 50 | 22 | 120 | – | 100 | – | – | 19.2 | – | 1080 | – | – | –
12 | CC[C@]12CCN(CC3CC3)[C@H](C(=O)c3ccc(O)cc31)[C@H]2C | – | – | – | – | – | – | – | – | – | – | – | – | 93 | – | – | – | –
13 | C=CCN1CC[C@@]2(c3cccc(O)c3)CCC[C@@H]1[C@H]2O | > 50 | 29.2 | < 50 | – | < 50 | 2060 | 67 | – | – | – | – | – | – | – | – | – | –
